One data set relates to Mus musculus. Nature of the data set: The in vivo inhibitory activity of compound was measured as effectiveness in preventing seizures induced by loud -high frequency sounds in the DBA/2 mouse after 25 mg/kg ip administration. Type of data set: functional. The following applies: route intraperitoneal.
Another data set has as its target Glutamate NMDA receptor. The experiment in a line: Displacement of [3H]MK-801 from rat brain membrane N-methyl-D-aspartate glutamate receptor. (Loss of bound radioactivity is the signal in a displacement assay; it reports binding, not function.)
Data set [1] has as its target Sodium channel protein type 2 subunit alpha (Rattus norvegicus, UniProt P04775). The experiment in a line: Sodium channel block, determined by % block of [14C]guanidinium flux in CHO line expressing rat type IIA sodium channels derived from rat brain.
A further data set can be described thus: physchem. The following applies: octanol/15 mM HEPES/135 mM NaCl, pH 7.4.
The nature of data set [2]: Prevention of seizures induced by loud -high frequency sounds in the DBA/2 mouse after 20 mg/kg ip administration. Type of data set: functional. The following applies: route intraperitoneal.

Structures are written as SMILES.

Inhibition in vivo, IC50 and logD data for 19 compounds are collected here from ChEMBL document CHEMBL1131068, “Synthesis and pharmacological evaluation of N,N'-diarylguanidines as potent sodium channel blockers and anticonvulsant agents” (J Med Chem, 1998).

As a reminder, the inhibition in vivo is the percentage by which the read-out fell short of the control. High values mean a strong effect, low ones a weak effect. For orientation: IC50 means the concentration that gives 50% inhibition. Usually logD stands for lipophilicity at a set pH, counting ionised and neutral species.

Chain of Sodium channel protein type 2 subunit alpha (P04775 whole entry): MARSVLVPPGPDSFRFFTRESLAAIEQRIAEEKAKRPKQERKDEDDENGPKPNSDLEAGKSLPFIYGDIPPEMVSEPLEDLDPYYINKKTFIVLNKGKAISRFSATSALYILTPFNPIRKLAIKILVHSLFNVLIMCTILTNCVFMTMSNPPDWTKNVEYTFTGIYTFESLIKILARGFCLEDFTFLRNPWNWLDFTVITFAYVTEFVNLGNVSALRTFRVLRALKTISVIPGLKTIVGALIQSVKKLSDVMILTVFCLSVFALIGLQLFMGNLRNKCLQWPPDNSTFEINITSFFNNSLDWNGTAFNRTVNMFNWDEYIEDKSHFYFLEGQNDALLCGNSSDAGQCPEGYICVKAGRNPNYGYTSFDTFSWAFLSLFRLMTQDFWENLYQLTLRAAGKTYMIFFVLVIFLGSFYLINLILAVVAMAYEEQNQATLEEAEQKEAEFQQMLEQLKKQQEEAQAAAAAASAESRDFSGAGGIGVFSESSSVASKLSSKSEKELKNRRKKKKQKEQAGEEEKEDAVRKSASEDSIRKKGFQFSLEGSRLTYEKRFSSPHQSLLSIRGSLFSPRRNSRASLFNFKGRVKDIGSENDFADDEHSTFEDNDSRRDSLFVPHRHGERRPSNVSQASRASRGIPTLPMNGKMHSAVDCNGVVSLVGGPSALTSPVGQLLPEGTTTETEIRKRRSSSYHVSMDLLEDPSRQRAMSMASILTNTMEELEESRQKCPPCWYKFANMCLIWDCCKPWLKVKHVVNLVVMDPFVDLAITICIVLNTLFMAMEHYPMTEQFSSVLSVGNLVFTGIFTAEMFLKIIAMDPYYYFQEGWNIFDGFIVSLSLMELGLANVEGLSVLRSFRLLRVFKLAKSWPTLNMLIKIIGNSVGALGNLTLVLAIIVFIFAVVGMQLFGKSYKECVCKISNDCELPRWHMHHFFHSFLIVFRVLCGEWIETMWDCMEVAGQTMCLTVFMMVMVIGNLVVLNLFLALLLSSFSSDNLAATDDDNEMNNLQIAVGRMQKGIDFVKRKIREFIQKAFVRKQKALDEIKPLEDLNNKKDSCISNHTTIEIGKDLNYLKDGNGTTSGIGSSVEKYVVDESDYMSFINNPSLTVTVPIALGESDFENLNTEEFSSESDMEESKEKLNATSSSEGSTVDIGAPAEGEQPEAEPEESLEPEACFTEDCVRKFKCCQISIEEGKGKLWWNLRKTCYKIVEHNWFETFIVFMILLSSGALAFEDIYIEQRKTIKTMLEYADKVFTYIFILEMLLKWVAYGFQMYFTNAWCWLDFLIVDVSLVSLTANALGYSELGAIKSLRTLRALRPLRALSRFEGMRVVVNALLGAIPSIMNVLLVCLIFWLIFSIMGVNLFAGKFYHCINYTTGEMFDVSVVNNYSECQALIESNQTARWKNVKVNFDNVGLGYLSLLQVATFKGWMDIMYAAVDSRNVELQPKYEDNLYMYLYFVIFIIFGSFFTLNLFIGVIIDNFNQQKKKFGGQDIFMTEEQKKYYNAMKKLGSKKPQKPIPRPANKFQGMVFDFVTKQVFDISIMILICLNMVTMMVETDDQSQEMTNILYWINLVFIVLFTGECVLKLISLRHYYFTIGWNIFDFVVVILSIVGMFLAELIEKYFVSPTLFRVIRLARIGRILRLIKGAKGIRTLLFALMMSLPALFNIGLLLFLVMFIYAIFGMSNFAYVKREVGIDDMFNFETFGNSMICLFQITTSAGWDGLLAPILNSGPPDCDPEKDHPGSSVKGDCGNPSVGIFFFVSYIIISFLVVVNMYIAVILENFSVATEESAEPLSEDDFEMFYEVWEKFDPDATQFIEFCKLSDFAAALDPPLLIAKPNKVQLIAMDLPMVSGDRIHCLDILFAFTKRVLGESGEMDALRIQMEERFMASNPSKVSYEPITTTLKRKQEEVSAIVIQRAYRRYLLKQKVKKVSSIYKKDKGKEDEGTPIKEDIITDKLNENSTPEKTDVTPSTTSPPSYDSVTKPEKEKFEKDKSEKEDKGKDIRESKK
Description for physchem: Partition coefficient (logD7.4) (octanol/15 mM HEPES/135 mM NaCl at pH 7.4)

In the data set with Mus musculus, `CCCCc1ccc(N=C(N)Nc2ccc(CCCC)cc2)cc1` came in with an inhibition in vivo at 25 mg/kg of 82%. Moreover, the half-inhibitory concentration (IC50) was 3.32 µM on Glutamate NMDA receptor and 0.13 µM in data set [1]. Also, the logD in the data set “physchem” came to 4.1.

The compound `CCC(C)c1ccc(NC(=N)Nc2ccc(C(C)CC)cc2)cc1` (stereo not given) had an inhibition in vivo at 20 mg/kg in data set [2] of 69%. For the same compound, the IC50 at Glutamate NMDA receptor turned out to be 10.1 µM. The compound further displayed a logD in the data set “physchem” of 3.94.

For the compound `CCCCc1ccc(NC(N)=Nc2ccc(OCc3ccccc3)cc2)cc1`, in data set [2], 20 mg/kg produced 40% inhibition in vivo. For the same compound, the IC50 at Glutamate NMDA receptor turned out to be 4.01 µM; in data set [1], 0.14 µM.

`NC(=Nc1ccc(Oc2ccccc2)cc1)Nc1ccc(Oc2ccccc2)cc1` showed an inhibition in vivo at 20 mg/kg in data set [2] of 21%. In data set [1], this compound displayed an IC50 of 0.43 µM. This compound yielded a logD in the data set “physchem” of 3.55.

As for `CC(C)(C)c1ccc(NC(=N)Nc2ccc(OCc3ccccc3)cc2)cc1`, the inhibition in vivo at 20 mg/kg in data set [2] is 27%. Besides, the IC50 on Glutamate NMDA receptor was found to be 2.19 µM; in data set [1], 0.11 µM. In “physchem”, this compound had a logD of 3.46.

Consider `NC(=Nc1ccc(CCCCO)cc1)Nc1ccc(CCCCO)cc1`, for which at 20 mg/kg the inhibition in vivo in data set [2] was 0%. This compound also returned an IC50 in data set [1] of 8.19 µM. Also, in the data set “physchem”, the logD was determined as 0.047.

Take `COc1ccc(/N=C(\N)Nc2ccc3c4c(cccc24)CC3)c2ccccc12`: the inhibition in vivo at 20 mg/kg in data set [2] came out at 50%. In addition, the IC50 at Glutamate NMDA receptor was determined as 2.49 µM. The compound further came in with a logD in the data set “physchem” of 2.7.

The compound `CC(C)(C)c1ccc(NC(=N)Nc2ccc(C(C)(C)C)cc2)cc1` had an inhibition in vivo at 20 mg/kg in data set [2] of 60%. Besides, the IC50 is greater than 7.7 µM on Glutamate NMDA receptor and 1.54 µM in data set [1]. The logD in the data set “physchem” is 3.65.

Compound `CCCCOc1ccc(NC(=N)Nc2ccc(CCCCO)cc2)cc1` displayed an inhibition in vivo at 20 mg/kg in data set [2] of 11%. The same compound yielded a half-inhibitory concentration (IC50) in data set [1] of 1.78 µM. Moreover, the logD in the data set “physchem” was 1.72.

In data set [1], `NC(=Nc1ccc(-c2ccccc2)cc1)Nc1ccc(-c2ccccc2)cc1` gave an IC50 of 0.85 µM. Besides, in “physchem”, the logD was determined as 3.13.

As for `CCCCOc1ccc(N=C(N)Nc2ccc(OCCCC)cc2)cc1`, in data set [2], the inhibition in vivo at 20 mg/kg came to 52%. The IC50 stood at 3.48 µM at Glutamate NMDA receptor and 0.19 µM in data set [1]. The same compound returned a logD in the data set “physchem” of 3.52.

On to `CCCCCCc1ccc(N=C(N)Nc2ccc(CCCCCC)cc2)cc1`, for which the inhibition in vivo at 20 mg/kg in data set [2] worked out at 79%. For the same compound, the IC50 was determined as 7.79 µM at Glutamate NMDA receptor and 0.83 µM in data set [1]. In “physchem”, this compound yielded a logD of 6.07.

Turning to `CCC(C)c1ccc(NC(N)=Nc2ccc3c4c(cccc24)CC3)cc1` (stereo not given), at 20 mg/kg the inhibition in vivo in data set [2] was 33%. This compound also had an IC50 in data set [1] of 0.68 µM. The same compound registered a logD in “physchem” of 3.31.

With `NC(=Nc1ccc(Sc2ccccc2)cc1)Nc1ccc(Sc2ccccc2)cc1`, the midpoint of inhibition in data set [1], the IC50, lay at 0.84 µM. For the same compound, the logD in the data set “physchem” is 4.18.

Turning to `CCc1ccc(NC(=N)Nc2ccc(CC)cc2)cc1`, the inhibition in vivo at 20 mg/kg in data set [2] was 100%. For the same compound, the IC50 stood at 7.91 µM on Glutamate NMDA receptor and 1.39 µM in data set [1]. The compound also registered a pH-dependent lipophilicity (logD) in “physchem” of 1.7.

Compound `Cc1ccc(N=C(N)Nc2ccc(C)cc2)cc1` displayed an inhibition in vivo at 20 mg/kg in data set [2] of 43%. Also, the figures for the IC50 (at Glutamate NMDA receptor; in data set [1]) were 10.2 µM and 9.21 µM, respectively. In the data set “physchem”, this compound had a logD of 0.7.

As to `CC(C)c1ccc(NC(=N)Nc2ccc(C(C)C)cc2)cc1`, testing at 20 mg/kg in data set [2] gave an inhibition in vivo of 85%. Besides, the IC50 on Glutamate NMDA receptor stood at 17.9 µM; in data set [1], 0.46 µM. In addition, the logD in “physchem” was 2.72.

In data set [2], `Nc1nc2ccc(OC(F)(F)F)cc2s1` [RILUZOLE] came in with an inhibition in vivo at 20 mg/kg of 92%.

As for `CN1CCN(c2ncc(-c3cc(Cl)cc(Cl)c3Cl)c(N)n2)CC1` [SIPATRIGINE], in data set [2], testing at 20 mg/kg gave an inhibition in vivo of 66%. In addition, the logD in “physchem” came to 3.39.
